Assay [1] deals with T1, myo-inositol transporter (Rattus norvegicus, UniProt Q80WA5).
T1 construct: PC12 cells were gently detached and maintained in a suspension culture; endogenous in cells; host or cells: PC12
T1 sequence (Q80WA5 1-718): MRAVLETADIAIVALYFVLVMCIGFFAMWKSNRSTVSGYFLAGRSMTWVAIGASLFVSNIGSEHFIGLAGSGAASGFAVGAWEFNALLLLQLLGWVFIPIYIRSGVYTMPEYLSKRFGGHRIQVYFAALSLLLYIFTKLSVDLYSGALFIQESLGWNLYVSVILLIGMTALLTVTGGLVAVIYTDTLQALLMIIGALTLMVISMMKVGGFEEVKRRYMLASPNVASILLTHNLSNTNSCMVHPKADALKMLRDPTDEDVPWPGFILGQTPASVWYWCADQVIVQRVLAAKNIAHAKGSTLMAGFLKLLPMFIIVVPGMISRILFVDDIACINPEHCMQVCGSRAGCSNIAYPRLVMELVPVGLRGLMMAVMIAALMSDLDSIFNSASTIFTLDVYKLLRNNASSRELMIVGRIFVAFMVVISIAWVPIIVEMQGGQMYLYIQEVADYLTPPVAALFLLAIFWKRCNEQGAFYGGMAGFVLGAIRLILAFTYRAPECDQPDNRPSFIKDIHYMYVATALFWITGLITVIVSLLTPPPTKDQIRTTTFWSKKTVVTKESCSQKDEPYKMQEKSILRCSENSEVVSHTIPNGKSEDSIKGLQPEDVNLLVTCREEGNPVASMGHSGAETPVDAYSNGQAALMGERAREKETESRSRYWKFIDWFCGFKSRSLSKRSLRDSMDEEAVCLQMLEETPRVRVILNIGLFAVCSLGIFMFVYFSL
The experiment in a line: [3H]myo-inositol uptake by the myo-inositol transporter in PC12 cells. The format is cell-based. Conditions: for Maximal Transport Rate Vmax: in presence of fixed 1 mM analog. As for the experimental part: To determine if the effect of the fluoro-myo-inositol analogs might be mediated by the blockade of the myo-inositol transporter, which is responsible for uptake and accumulation of myo-inositol into the cell, the ability of these two compounds to block [^3 H]myo-inositol transport was studied directly.
The uptake of [^3 H]myo-inositol by the myo-inositol transporter was determined as follows: PC12 cells were gently detached and maintained in a suspension culture in RPMI medium (both myo-inositol and serum free) at 37° C. [^3 H]myo-inositol was added to this culture at a concentration of 1μCi/ml. Aliquots of this suspension were removed at the indicated time, diluted in 10 volumes of ice-cold PBS containing 10 mM unlabelled myo-inositol to stop the uptake process, centrifuged at 4° C. for 20 minutes at 50xg. The cell pellet, which contained the transported [^3 H]myo-inositol, was dissolved in dilute NaOH and the radioactivity quantified by liquid scintillation counting.
The […] and Vmax of myoinositol were determined from LineweaverBurke plots
of the uptake of [^3 H]myoinositol (25 nM) in the presence of
increasing concentrations of unlabeled myoinositol in PC12 cells. The Ki
of the two fluoromyo-inositol analogs was determined by conducting the
uptake studies in the presence of a fixed concentration (1 mM) of each

For assay [2], the system named is PC12 cells. The experiment in a line: Effects of fluoroinositol treatment on cell size (protein per cell, Lowry). The format is cell-based, rat. From the text:
As cells grow in culture, the size of an individual cell varies in a fairly predictable way. The size of a cell can be expressed as the amount of protein present per cell. […] Immediately after mitosis, the cell size drops considerably, frequently to levels approximately half of the pre-mitotic level.
By investigating the size of a cell, it is possible to determine at which point within the cell cycle inhibitors of cell replication are exerting their effects. Accordingly, we investigated the effect of the 1- and 3-fluoro-myo-inositol analogs on the size of cells chronically treated with such analogs.
Cells were grown and treated with 1- and 3-fluoro-myo-inositol analogs as described in Example XIII. On the days indicated, cells were gently harvested without disruption, and the number of cells counted in triplicate in a cell counting chamber. Following determination of the number of cells per sample, the remainder of the cells were pelleted in a microcentrifuge as described hereinabove, and the protein in the sample was determined by the method of Lowry. Thus, it was possible to derive from these two data sets the amount of protein per cell, which is expressed as nanograms of protein per cell, as indicated in Table 3: […]

Assay [3] deals with PC12 cells. Description: Uptake and incorporation of [3H]myo-inositol into PC12 cells following treatment with inositol analogs. The assay is classed as cell-based, rat. As for the experimental part:
Since myo-inositol must be incorporated into the cellular plasma membranes in order for it to serve its role as a second messenger, we therefore verified the ability of the 1- and 3-fluoro-myo-inositol analogs to perturb the incorporation of myo-inositol into cellular plasma membranes by the enzyme CDP-diacylglycerol-inositol phosphatidyltransferase (phosphatidylinositol synthetase).
These tests were conducted by treating cells for either 1, 3, 5, or 7 days with the myo-inositol analogs, followed by a brief exposure to radiolabeled myo-inositol ([^3 H]myo-inositol). The extent of incorporation of tritiated myo-inositol would, therefore, reflect the extent to which phosphatidylinositol and its phosphorylated analogs are deficient in the cellular plasma membranes.
Cells were grown as described hereinabove. Twenty-four hours after plating, the medium was changed and cells were exposed to either inositol free medium (Control 2) or medium containing either the 1- or the 3-fluoro-myo-inositol analog. […] Samples from both the pellet and supernatant were then obtained and the levels of radioactivity in each were determined. Radioactivity in the supernatant corresponded to the amount of free [^3 H]myo-inositol in the cytoplasm of the cell, whereas the radioactivity present in the TCA-precipated pellet represented [^3 H]myo-inositol incorporated into the cellular plasma membranes. […]

In assay [4] the test system is PC12 cells. Description: Cell growth inhibition in PC12 cells (cell counts; dose response and time course). Conditions: dose response. The assay is classed as cell-based, rat. The method, then:
The biological effects of the 3-fluoro and 1-fluoro myo-inositol analogs were tested in PC12 cells, a cell line derived from a rat pheochromocytoma, which has been widely used to study the effects of various growth factors and differentiation promoters as further described by Green, L. A., et al., Adv. Cell Neurobiol., 3, 373-414, (1982), the disclosure of which is incorporated herein by reference.
PC12 cells were seeded at a density of 3.3×10^5 cells/cm^2 in plastic culture dishes and grown at 37° C. in a humidified atmosphere of 95% air/5% CO2. The basal medium used in these experiments was RPMI-1640 medium (Gibco). In some experiments a specially formulated inositol-free RPMI-1640 medium (Gibco) was used. This basal medium was supplemented with either normal or extensively dialyzed horse serum (10%) and fetal calf serum (5%) (Gibco). […]
A dose-response study was performed by growing cells in the presence of certain concentrations of the 3-fluoro and the 1-fluoro-myo-inositol analogs. At the end of five days, the cells were counted by the means described hereinabove.
The time course effect on cell replication was then examined, using the concentration of 1-fluoro and 3-fluoro myo-inositol analogs determined to have maximal effects in the dose response study of Table 1. […]

The source of these data is patent US5053399A, “Myo-inositol analogs and methods for their use” (University of Pittsburgh, priority 1990, dated 1991).

Turning to `O[C@H]1[C@H](O)[C@@H](O)[C@H](O)[C@@H](O)[C@H]1O` [Myo-inositol, myo-inositol], in assay [1] (Lineweaver-Burke plots, [3H]myo-inositol 25 nM with increasing unlabeled myo-inositol), the “Affinity Constant K (Ka)” value stood at 45 µM.

Regarding `O[C@@H]1[C@@H](O)[C@@H](O)[C@@H](F)[C@H](O)[C@H]1O` [1-deoxy-1-fluoroinositol, 1-deoxy-1-fluoro-myo-inositol], in assay [2], the “plateau of protein per cell relative to protein levels on day one” value was “approximately twice”. Moreover, the “increase in the number of unoccupied sites for myo-inositol in the cellular plasma membranes” value in assay [3] (after several days of exposure) was 10 fold. In addition, the “Maximal Transport Rate Vmax” value in assay [1] stood at 2.27 nmol/mg/h. The “potency in inhibiting cell replication relative to the 3-fluoro-myo-inositol analog” value in assay [4] is “about five-fold more potent”; in assay [4] (listed as I-fluoro-myo-inositol analog) it was 5 fold.

For `O[C@@H]1[C@@H](O)[C@H](O)[C@@H](F)[C@@H](O)[C@H]1O` [3-deoxy-3-fluoroinositol, 3-deoxy-3-fluoro-myo-inositol], the “level of radioactively-labeled myo-inositol incorporated into the cellular plasma membranes” value in assay [3] (PC12 cells, result in words) is “quite low”. Besides, in assay [1], the “Maximal Transport Rate Vmax” value was determined as 2.27 nmol/mg/h.
